Data as given in patent US7868026B2, “Therapeutic compounds” (Pfizer Inc., priority 2005, dated 2011).
Read-outs that look alike come from different tables or passages of the source.

Tests used:
Assay type in all cases: biochemical
CYP3A4 [1] = biological target: T1, CYP3A4 (Homo sapiens, UniProt P08684); assay: Determination of compound Kiapp against recombinant CYP3A4 enzyme (BFC fluorescent substrate)
Outline: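 Kiapp derived from initial velocities over the first 5 min of BFC (5 uM) oxidation, using Morrison's tight-binding equation for non-partial and Szedlacsek's for partial inhibitors. Inhibitor first pre-incubated ≥30 min with CYP3A4 (5.5 or 8 nM, ±b5) in pH 7.0 phosphate/TCEP/2% DMF at room temperature; 200 uM NADPH initiated.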

CYP3A4 [2] = biological target: T1, CYP3A4; assay: Determination of IC50 against CYP3A4 by measurement of inhibition of testosterone metabolism (human liver microsomes, 6-β-OH-testosterone by LC-MS/MS); parameters: 0.1 mg/mL human liver microsomes; settings: read-out: IC50 (Testo.)
Outline: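 6-β-OH-testosterone formation was read by LC-MS/MS (MRM, internal standard, standard curve) after eight minutes. Reaction contained testosterone 25 μM, NADPH 1 mM and microsomal protein 0.1 mg/mL in pH 7.4 potassium phosphate (100 mM).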

CYP3A4 [3] = biological target: T1, CYP3A4; assay: Determination of IC50 against CYP3A4 by measurement of inhibition of midazolam metabolism (human liver microsomes, 1-hydroxymidazolam by LC-MS/MS); parameters: 0.1 mg/mL human liver microsomes; settings: 2 μM midazolam, 0.1 mg/mL human liver microsomes
Outline: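 Human liver microsomes (0.1 mg/mL) incubated 8 min with 2 μM midazolam and 1 mM NADPH in 100 mM potassium phosphate, pH 7.4. 1-Hydroxymidazolam quantified by LC-MS/MS (MRM) as peak area ratio to internal standard against a metabolite standard curve.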

[4] = Baculo. enzyme preparation, read-out: Kiapp (BFC, Baculo.)
[5] = Super. enzyme preparation, read-out: Kiapp (BFC, Super.)

T1 sequence (P08684 whole entry): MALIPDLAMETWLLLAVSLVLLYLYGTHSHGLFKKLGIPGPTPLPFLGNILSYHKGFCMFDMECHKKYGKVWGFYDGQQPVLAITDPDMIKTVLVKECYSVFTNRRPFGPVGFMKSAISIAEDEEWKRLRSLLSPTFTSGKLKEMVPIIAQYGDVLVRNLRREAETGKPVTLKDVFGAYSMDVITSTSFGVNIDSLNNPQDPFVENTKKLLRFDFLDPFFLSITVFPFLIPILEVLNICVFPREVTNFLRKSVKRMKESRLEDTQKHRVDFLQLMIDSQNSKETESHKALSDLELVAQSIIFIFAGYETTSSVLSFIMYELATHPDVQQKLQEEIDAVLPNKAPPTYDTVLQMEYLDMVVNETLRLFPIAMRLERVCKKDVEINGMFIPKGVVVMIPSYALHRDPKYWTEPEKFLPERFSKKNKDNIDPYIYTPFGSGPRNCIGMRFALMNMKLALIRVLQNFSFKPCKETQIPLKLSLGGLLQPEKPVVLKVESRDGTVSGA

| Compound | Ki (CYP3A4 [1]; [4]) | Ki (CYP3A4 [1]; [5]) | IC50 (CYP3A4 [2]) | IC50 (CYP3A4 [3]) |
| --- | --- | --- | --- | --- |
| COCCN(C)C(=O)c1ccccc1S(=O)(=O)Nc1cnccc1OC [Example 161, N-(2-methoxyethyl)-2-{[(4-methoxypyridin-3-yl)amino]sulfonyl}-N-methylbenzamide] | > 1000 nM | 418 nM | 371 nM | 308 nM |
| COCCN(C)C(=O)c1ccccc1S(=O)(=O)Nc1cncc(C)c1 [Example 162, N-(2-methoxyethyl)-N-methyl-2-{[(5-methylpyridin-3-yl)amino]sulfonyl}benzamide] | 469 nM | 99.9 nM | 170 nM | 93 nM |
| CN(Cc1ccc(F)c(F)c1)C(=O)c1ccccc1S(=O)(=O)Nc1cncc(F)c1 [Example 163, N-(3,4-difluorobenzyl)-2-{[(5-fluoropyridin-3-yl)amino]sulfonyl}-N-methylbenzamide] | 263 nM | 58 nM | 82 nM | 49 nM |
| Cc1ccncc1NS(=O)(=O)c1ccccc1C(=O)N(C)CCC(C)C [Example 164, N-methyl-N-(3-methylbutyl)-2-{[(4-methylpyridin-3-yl)amino]sulfonyl}benzamide] | 281 nM | 34.3 nM | 47 nM | 24 nM |
| Cc1ccncc1NS(=O)(=O)c1ccccc1C(=O)N(C)Cc1ccc(C(F)(F)F)cc1 [Example 165, N-methyl-2-{[(4-methylpyridin-3-yl)amino]sulfonyl}-N-[4-(trifluoromethyl)benzyl]benzamide] | 163 nM | 29.6 nM | 54 nM | 43 nM |
| Cc1ccc(CNC(=O)c2ccccc2S(=O)(=O)Nc2cnccc2C)cc1F [Example 166, N-(3-fluoro-4-methylbenzyl)-2-{[(4-methylpyridin-3-yl)amino]sulfonyl}benzamide] | 196 nM | 35.1 nM | 26 nM | 23 nM |
| Cc1cc(CNC(=O)c2ccccc2S(=O)(=O)Nc2cnccc2C)ccc1F [Example 167, N-(4-fluoro-3-methylbenzyl)-2-{[(4-methylpyridin-3-yl)amino]sulfonyl}benzamide] | 159 nM | 17.4 nM | 16 nM | 9 nM |
| Cc1ccncc1NS(=O)(=O)c1ccccc1C(=O)NCc1ccc(S(C)(=O)=O)cc1 [Example 169, 2-{[(4-methylpyridin-3-yl)amino]sulfonyl}-N-[4-(methylsulfonyl)benzyl]benzamide] | > 1000 nM | 187 nM | 395 nM | 139 nM |
| COCCN(C)C(=O)c1ccccc1S(=O)(=O)Nc1cnccc1C [Example 170, N-(2-methoxyethyl)-N-methyl-2-{[(4-methylpyridin-3-yl)amino]sulfonyl}benzamide] | > 1000 nM | 427 nM | 285 nM | 557 nM |
| Cc1ccncc1NS(=O)(=O)c1ccccc1C(=O)NCCOc1ccccc1 [Example 171, 2-{[(4-methylpyridin-3-yl)amino]sulfonyl}-N-(2-phenoxyethyl)benzamide] | 299 nM | 49.1 nM | 38 nM | 35 nM |
| Cc1ccncc1NS(=O)(=O)c1ccccc1C(=O)N(C)Cc1ccc(F)c(F)c1 [Example 172, N-(3,4-difluorobenzyl)-N-methyl-2-{[(4-methylpyridin-3-yl)amino]sulfonyl}benzamide] | 173 nM | 21.7 nM | 34 nM | 44 nM |
| COc1cncc(NS(=O)(=O)c2ccccc2C(=O)N(C)CCOc2ccccc2)c1 [Example 173, 2-{[(5-methoxypyridin-3-yl)amino]sulfonyl}-N-methyl-N-(2-phenoxyethyl)benzamide] | 104 nM | 9.9 nM | 18 nM | 16 nM |
| COCCNC(=O)c1ccccc1S(=O)(=O)Nc1cnccc1C [Example 174, N-(2-methoxyethyl)-2-{[(4-methylpyridin-3-yl)amino]sulfonyl}benzamide] | > 1000 nM | 392 nM | 356 nM | 451 nM |
| COc1cncc(NS(=O)(=O)c2ccccc2C(=O)NCCO)c1 [Example 176, N-(2-hydroxyethyl)-2-{[(5-methoxypyridin-3-yl)amino]sulfonyl}benzamide] | > 1000 nM | 625 nM | > 750 nM | 406 nM |
| Cc1ccncc1NS(=O)(=O)c1ccccc1C(=O)NC(C)(C)C [Example 178, N-(tert-butyl)-2-{[(4-methylpyridin-3-yl)amino]sulfonyl}benzamide] | > 1000 nM | 106 nM | 97 nM | 70 nM |
| Cc1ccncc1NS(=O)(=O)c1ccccc1C(=O)NCCC(C)C [Example 179, N-(3-methylbutyl)-2-{[(4-methylpyridin-3-yl)amino]sulfonyl}benzamide] | 314 nM | 63.7 nM | 58 nM | 45 nM |
| COc1cncc(NS(=O)(=O)c2ccccc2C(=O)NCc2c(F)ccc(C)c2F)c1 [Example 180, N-(2,6-difluoro-3-methylbenzyl)-2-{[(5-methoxypyridin-3-yl)amino]sulfonyl}benzamide] | 92.8 nM | 7 nM | 11 nM | 4 nM |
| COc1cncc(NS(=O)(=O)c2ccccc2C(=O)NCc2cccc(F)c2F)c1 [Example 181, N-(2,3-difluorobenzyl)-2-{[(5-methoxypyridin-3-yl)amino]sulfonyl}benzamide] | 71.8 nM | 10.8 nM | 13 nM | 7 nM |
| COc1cncc(NS(=O)(=O)c2ccccc2C(=O)NCc2ccccc2OC)c1 [Example 186, N-(2-methoxybenzyl)-2-{[(5-methoxypyridin-3-yl)amino]sulfonyl}benzamide] | 171 nM | 9.7 nM | 7 nM | 6 nM |
| COc1cncc(NS(=O)(=O)c2ccccc2C(=O)NC2CCCCC2)c1 [Example 187, N-cyclohexyl-2-{[(5-methoxypyridin-3-yl)amino]sulfonyl}benzamide] | 257 nM | 35.9 nM | 28 nM | 22 nM |
| CCCCC(CO)NC(=O)c1ccccc1S(=O)(=O)Nc1cncc(OC)c1 (stereo not drawn) [Example 189, N-[1-(hydroxymethyl)pentyl]-2-{[(5-methoxypyridin-3-yl)amino]sulfonyl}benzamide] | 175 nM | 27.4 nM | 48 nM | 24 nM |

The remaining molecules from weak to strong by Ki (CYP3A4 [1]; [4]), led by results:

| Ki (CYP3A4 [1]; [4]) | Ki (CYP3A4 [1]; [5]) | IC50 (CYP3A4 [2]) | IC50 (CYP3A4 [3]) | Compound |
| --- | --- | --- | --- | --- |
| 70.6 nM | 3.5 nM | 12 nM | 11 nM | Cc1ccccc1CCNC(=O)c1ccccc1S(=O)(=O)Nc1cnccc1C [Example 177, N-[2-(2-methylphenyl)ethyl]-2-{[(4-methylpyridin-3-yl)amino]sulfonyl}benzamide] |
| 66 nM | 11.7 nM | 18 nM | 9 nM | Cc1ccncc1NS(=O)(=O)c1ccccc1C(=O)NCc1ccc(F)c(Cl)c1 [Example 168, N-(3-chloro-4-fluorobenzyl)-2-{[(4-methylpyridin-3-yl)amino]sulfonyl}benzamide] |
| 54.5 nM | 5.9 nM | 11 nM | 13 nM | COc1cncc(NS(=O)(=O)c2ccccc2C(=O)NCc2cc(F)cc(F)c2)c1 [Example 184, N-(3,5-difluorobenzyl)-2-{[(5-methoxypyridin-3-yl)amino]sulfonyl}benzamide] |
| 37.4 nM | 3.5 nM | 13 nM | 6 nM | COc1cncc(NS(=O)(=O)c2ccccc2C(=O)NC(C)c2ccc(Cl)cc2)c1 (stereo not drawn) [Example 182, N-[1-(4-chlorophenyl)ethyl]-2-{[(5-methoxypyridin-3-yl)amino]sulfonyl}benzamide] |
| 36.4 nM | 3.4 nM | 12 nM | 8 nM | COc1cncc(NS(=O)(=O)c2ccccc2C(=O)NCC2(O)C3CC4CC(C3)CC2C4)c1 (stereo not drawn) [Example 188, N-[(2-hydroxy-2-adamantyl)methyl]-2-{[(5-methoxypyridin-3-yl)amino]sulfonyl}benzamide] |
| 24 nM | 1.3 nM | 9 nM | 9 nM | COc1cncc(NS(=O)(=O)c2ccccc2C(=O)NCc2cccc(Cl)c2F)c1 [Example 175, N-(3-chloro-2-fluorobenzyl)-2-{[(5-methoxypyridin-3-yl)amino]sulfonyl}benzamide] |
| 22.6 nM | 2 nM | 11 nM | 5 nM | COc1cncc(NS(=O)(=O)c2ccccc2C(=O)NCc2ccc(F)cc2Cl)c1 [Example 183, N-(2-chloro-4-fluorobenzyl)-2-{[(5-methoxypyridin-3-yl)amino]sulfonyl}benzamide] |
| 17.1 nM | 2.8 nM | 10 nM | 11 nM | COc1cncc(NS(=O)(=O)c2ccccc2C(=O)NCc2cccc(Cl)c2Cl)c1 [Example 185, N-(2,3-dichlorobenzyl)-2-{[(5-methoxypyridin-3-yl)amino]sulfonyl}benzamide] |
| 16.9 nM | 3.4 nM | 16 nM | 7 nM | COc1cncc(NS(=O)(=O)c2ccccc2C(=O)N[C@H](CO)CC2CCCCC2)c1 [Example 190, N-[(1S)-2-cyclohexyl-1-(hydroxymethyl)ethyl]-2-{[(5-methoxypyridin-3-yl)amino]sulfonyl}benzamide] |
